Experimental data published in paper PMC6979384, “Characterization of the plant homeodomain (PHD) reader family for their histone tail interactions” (Epigenetics & Chromatin, 2020).

Experiments:
Test in all cases: Histone peptide microarray
Format in all cases: binding, human
[1] = tested on: AIRE (PP)
Procedure, shortened: (§1)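 GST-tagged PHD finger readers were expressed, purified and applied at 0.5 μM to a microarray of 293 synthetic histone peptides carrying single or combinatorial PTMs, using an optimized protocol. Binding signals are averages with standard deviation from 4 replicates.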

[2] = tested on: BAZ2B
Procedure, shortened: as §1

[3] = tested on: BPTF (PB)
Procedure, shortened: as §1

[4] = tested on: CHD4 (PPCC)
Procedure, shortened: as §1

[5] = tested on: CHD5 (PCC)
Procedure, shortened: as §1

[6] = tested on: CHD5 (PPCC)
Procedure, shortened: as §1

[7] = tested on: DIDO1
Procedure, shortened: as §1

[8] = tested on: DPF2 (PPC2W2)
Procedure, shortened: as §1

[9] = tested on: ING1
Procedure, shortened: as §1

[10] = tested on: ING2
Procedure, shortened: as §1

[11] = tested on: ING3
Procedure, shortened: as §1

[12] = tested on: ING4
Procedure, shortened: as §1

[13] = tested on: ING5
Procedure, shortened: as §1

[14] = tested on: KDM4C (TTP)
Procedure, shortened: as §1

[15] = tested on: KDM5A (1)
Procedure, shortened: as §1

[16] = tested on: KDM5A (3)
Procedure, shortened: as §1

[17] = tested on: KDM5B (1)
Procedure, shortened: as §1

[18] = tested on: KDM5B (3)
Procedure, shortened: as §1

[19] = tested on: KDM7A
Procedure, shortened: as §1

[20] = tested on: MLL5
Procedure, shortened: as §1

[21] = tested on: MORC3 (CW)
Procedure, shortened: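 A peptide microarray holding 293 synthetic histone peptides with individual or combinatorial modifications was probed with each GST-PHD protein at 0.5 μM. Values represent mean intensity (±SD) from four replicates.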

[22] = tested on: PHF13
Procedure, shortened: as §1

[23] = tested on: PHF21A
Procedure, shortened: as §1

[24] = tested on: PHF23
Procedure, shortened: as §1

[25] = tested on: PHF2
Procedure, shortened: as §1

[26] = tested on: PHF8
Procedure, shortened: as §1

[27] = tested on: PHRF1 (RP)
Procedure, shortened: as §1

[28] = tested on: RAG2
Procedure, shortened: as §1

[29] = tested on: SP140L
Procedure, shortened: as §1

[30] = tested on: TAF3
Procedure, shortened: as §1

[31] = tested on: TRIM66 (PB)
Procedure, shortened: as §1

With H2BK12ac: H2B 1-24 [Peptide H2BK12ac] the “Array Heatmap value (peptide array signal)” value (“Array Heatmap value” below) ([1]; AIRE (PP), sheet "Array Heatmap", each array performed twice, total n = 4) was 0.3561, the “Array Heatmap value” value ([2]; BAZ2B, sheet "Array Heatmap", each array performed twice, total n = 4) was 0.3626 and the “Array Heatmap value” value ([3]; BPTF (PB), sheet "Array Heatmap", each array performed twice, total n = 4) was 0.2975. The “Array Heatmap value” value ([4]; CHD4 (PPCC), sheet "Array Heatmap", each array performed twice, total n = 4) was 0.55, the “Array Heatmap value” value ([5]; CHD5 (PCC), sheet "Array Heatmap", each array performed twice, total n = 4) was 0.7553 and the “Array Heatmap value” value ([6]; CHD5 (PPCC), sheet "Array Heatmap", each array performed twice, total n = 4) was 0.4364. For the same substance, the “Array Heatmap value” value ([7]; DIDO1, sheet "Array Heatmap", each array performed twice, total n = 4) was 0.6693, the “Array Heatmap value” value ([8]; DPF2 (PPC2W2), sheet "Array Heatmap", each array performed twice, total n = 4) was 0.6335 and the “Array Heatmap value” value ([9]; ING1, sheet "Array Heatmap", each array performed twice, total n = 4) was 0.4874. The “Array Heatmap value” value ([10]; ING2, sheet "Array Heatmap", each array performed twice, total n = 4) was 0.5927, the “Array Heatmap value” value ([11]; ING3, sheet "Array Heatmap", each array performed twice, total n = 4) was 0.413 and the “Array Heatmap value” value ([12]; ING4, sheet "Array Heatmap", each array performed twice, total n = 4) was 0.3767. For the same substance, the “Array Heatmap value” value ([13]; ING5, sheet "Array Heatmap", each array performed twice, total n = 4) was 0.2703, the “Array Heatmap value” value ([14]; KDM4C (TTP), sheet "Array Heatmap", each array performed twice, total n = 4) was 0.3788 and the “Array Heatmap value” value ([15]; KDM5A (1), sheet "Array Heatmap", each array performed twice, total n = 4) was 0.3805. The “Array Heatmap value” value ([16]; KDM5A (3), sheet "Array Heatmap", each array performed twice, total n = 4) was 0.4192, the “Array Heatmap value” value ([17]; KDM5B (1), sheet "Array Heatmap", each array performed twice, total n = 4) was 0.5631 and the “Array Heatmap value” value ([18]; KDM5B (3), sheet "Array Heatmap", each array performed twice, total n = 4) was 0.4029. For the same substance, the “Array Heatmap value” value ([19]; KDM7A, sheet "Array Heatmap", each array performed twice, total n = 4) was 0.2936, the “Array Heatmap value” value ([20]; MLL5, sheet "Array Heatmap", each array performed twice, total n = 4) was 0.5021 and the “Array Heatmap value” value ([21]; MORC3 (CW), sheet "Array Heatmap", each array performed twice, total n = 4) was 0.3313. For the same substance, the “Array Heatmap value” value ([22]; PHF13, sheet "Array Heatmap", each array performed twice, total n = 4) was 0.5184, the “Array Heatmap value” value ([23]; PHF21A, sheet "Array Heatmap", each array performed twice, total n = 4) was 0.4277 and the “Array Heatmap value” value ([24]; PHF23, sheet "Array Heatmap", each array performed twice, total n = 4) was 0.4647. The “Array Heatmap value” value ([25]; PHF2, sheet "Array Heatmap", each array performed twice, total n = 4) was 0.5083, the “Array Heatmap value” value ([26]; PHF8, sheet "Array Heatmap", each array performed twice, total n = 4) was 0.311 and the “Array Heatmap value” value ([27]; PHRF1 (RP), sheet "Array Heatmap", each array performed twice, total n = 4) was 0.4148. For the same substance, the “Array Heatmap value” value ([28]; RAG2, sheet "Array Heatmap", each array performed twice, total n = 4) was 0.2122, the “Array Heatmap value” value ([29]; SP140L, sheet "Array Heatmap", each array performed twice, total n = 4) was 0.3291 and the “Array Heatmap value” value ([30]; TAF3, sheet "Array Heatmap", each array performed twice, total n = 4) was 0.2326. The “Array Heatmap value” value ([31]; TRIM66 (PB), sheet "Array Heatmap", each array performed twice, total n = 4) was 0.5657.
H4K12ac + K16ac + K20me2: H4 11-27 was tested, and the “Array Heatmap signal, AIRE (PP)” value ([1]; GST-tagged AIRE (PP), histone peptide array, arrays performed twice, n of 4) was 0.4913, the “Array Heatmap signal, BAZ2B” value ([2]; GST-tagged BAZ2B, histone peptide array, arrays performed twice, n of 4) was 0.5022 and the “Array Heatmap signal, BPTF (PB)” value ([3]; GST-tagged BPTF (PB = PHD + Bromodomain), histone peptide array, arrays performed twice, n of 4) was 0.3936. For the same substance, the “Array Heatmap signal, CHD4 (PPCC)” value ([4]; GST-tagged CHD4 (PPCC = Dual PHD + Dual Chromodomain), histone peptide array, arrays performed twice, n of 4) was 0.5676, the “Array Heatmap signal, CHD5 (PCC)” value ([5]; GST-tagged CHD5 (PCC = PHD + Dual Chromodomain), histone peptide array, arrays performed twice, n of 4) was 0.8229 and the “Array Heatmap signal, CHD5 (PPCC)” value ([6]; GST-tagged CHD5 (PPCC = Dual PHD + Dual Chromodomain), histone peptide array, arrays performed twice, n of 4) was 0.6049. For the same substance, the “Array Heatmap signal, DIDO1” value ([7]; GST-tagged DIDO1, histone peptide array, arrays performed twice, n of 4) was 0.7262, the “Array Heatmap signal, DPF2 (PPC2W2)” value ([8]; GST-tagged DPF2 (PPC2W2 = Dual PHD + C2W2-type Zn-finger), histone peptide array, arrays performed twice, n of 4) was 0.6546 and the “Array Heatmap signal, ING1” value ([9]; GST-tagged ING1, histone peptide array, arrays performed twice, n of 4) was 0.5241. The “Array Heatmap signal, ING2” value ([10]; GST-tagged ING2, histone peptide array, arrays performed twice, n of 4) was 0.6089, the “Array Heatmap signal, ING3” value ([11]; GST-tagged ING3, histone peptide array, arrays performed twice, n of 4) was 0.5264 and the “Array Heatmap signal, ING4” value ([12]; GST-tagged ING4, histone peptide array, arrays performed twice, n of 4) was 0.4756. The “Array Heatmap signal, ING5” value ([13]; GST-tagged ING5, histone peptide array, arrays performed twice, n of 4) was 0.405, the “Array Heatmap signal, KDM4C (TTP)” value ([14]; GST-tagged KDM4C (TTP = Tandem Tudor domain + PHD), histone peptide array, arrays performed twice, n of 4) was 0.537 and the “Array Heatmap signal, KDM5A (1)” value ([15]; GST-tagged KDM5A (1), histone peptide array, arrays performed twice, n of 4) was 0.4994. The “Array Heatmap signal, KDM5A (3)” value ([16]; GST-tagged KDM5A (3), histone peptide array, arrays performed twice, n of 4) was 0.5092, the “Array Heatmap signal, KDM5B (1)” value ([17]; GST-tagged KDM5B (1), histone peptide array, arrays performed twice, n of 4) was 0.6899 and the “Array Heatmap signal, KDM5B (3)” value ([18]; GST-tagged KDM5B (3), histone peptide array, arrays performed twice, n of 4) was 0.5172. The “Array Heatmap signal, KDM7A” value ([19]; GST-tagged KDM7A, histone peptide array, arrays performed twice, n of 4) was 0.418, the “Array Heatmap signal, MLL5” value ([20]; GST-tagged MLL5, histone peptide array, arrays performed twice, n of 4) was 0.5834 and the “Array Heatmap signal, MORC3 (CW)” value ([21]; GST-tagged MORC3 (CW = CW-type Zn-finger), histone peptide array, arrays performed twice, n of 4) was 0.4076. For the same substance, the “Array Heatmap signal, PHF13” value ([22]; GST-tagged PHF13, histone peptide array, arrays performed twice, n of 4) was 0.6561, the “Array Heatmap signal, PHF21A” value ([23]; GST-tagged PHF21A, histone peptide array, arrays performed twice, n of 4) was 0.4824 and the “Array Heatmap signal, PHF23” value ([24]; GST-tagged PHF23, histone peptide array, arrays performed twice, n of 4) was 0.5618. For the same substance, the “Array Heatmap signal, PHF2” value ([25]; GST-tagged PHF2, histone peptide array, arrays performed twice, n of 4) was 0.4604, the “Array Heatmap signal, PHF8” value ([26]; GST-tagged PHF8, histone peptide array, arrays performed twice, n of 4) was 0.3877 and the “Array Heatmap signal, PHRF1 (RP)” value ([27]; GST-tagged PHRF1 (RP), histone peptide array, arrays performed twice, n of 4) was 0.4498. The “Array Heatmap signal, RAG2” value ([28]; GST-tagged RAG2, histone peptide array, arrays performed twice, n of 4) was 0.281, the “Array Heatmap signal, SP140L” value ([29]; GST-tagged SP140L, histone peptide array, arrays performed twice, n of 4) was 0.3577 and the “Array Heatmap signal, TAF3” value ([30]; GST-tagged TAF3, histone peptide array, arrays performed twice, n of 4) was 0.2922. The “Array Heatmap signal, TRIM66 (PB)” value ([31]; GST-tagged TRIM66 (PB = PHD + Bromodomain), histone peptide array, arrays performed twice, n of 4) was 0.6093.
